Data: patent publication US20230365563A1, “QUINAZOLINE COMPOUND AND APPLICATION THEREOF” (SHANGHAI PHARMACEUTICALS HOLDING CO., LTD., priority 2020, published 2023)
Structures can show the parent of a compound that is named as a salt.

Assays:
KRAS_WT and SOS1 = target: T1, KRAS_WT and SOS1 (Homo sapiens, UniProt P01116); experiment: Inhibition of KRAS_WT/SOS1 binding (Cisbio binding kit, 665/615 ratio), Effect Embodiment C; conditions: read-out: GTP-KRAS-WT:SOS1 IC50
T1 construct: purchased
Procedure, shortened: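 Compounds tested as 3-fold, 11-point dilutions in duplicate at 1% DMSO final against the KRAS_WT/SOS1 binding system. IC50 derived by nonlinear regression fit.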

KRAS_G12D and cRAF = target: T2, KRAS_G12D and cRAF (Homo sapiens, UniProt P01116, G12D); experiment: Inhibition of KRAS_G12D/cRAF binding (Cisbio binding kit, 665/615 ratio), Effect Embodiment B; conditions: read-out: GTP-KRAS-G12D:CRAF IC50
T2 construct: purchased
T2 sequence (P01116 1-188 isoform P01116-2 G12D): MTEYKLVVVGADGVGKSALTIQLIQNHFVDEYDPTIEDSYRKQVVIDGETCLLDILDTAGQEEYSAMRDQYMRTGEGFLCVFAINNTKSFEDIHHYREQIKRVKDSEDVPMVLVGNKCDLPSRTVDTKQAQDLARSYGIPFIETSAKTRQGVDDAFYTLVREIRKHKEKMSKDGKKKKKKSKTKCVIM
Procedure, shortened: (§1)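 Duplicate wells received an eleven-point, threefold compound titration whose top point was the stock solution; final DMSO 1%.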

KRAS-G12D and SOS1 = target: T3, KRAS-G12D and SOS1 (Homo sapiens, UniProt P01116, G12D); experiment: Inhibition of KRAS-G12D/SOS1 binding (Cisbio binding kit, 665/615 ratio), Effect Embodiment A; conditions: read-out: GTP-KRAS-G12D:SOS1 IC50
T3 construct: purchased
T3 sequence (P01116 1-188 isoform P01116-2 G12D): as above
Procedure, shortened: as §1

T1 sequence (P01116 1-188 isoform P01116-2): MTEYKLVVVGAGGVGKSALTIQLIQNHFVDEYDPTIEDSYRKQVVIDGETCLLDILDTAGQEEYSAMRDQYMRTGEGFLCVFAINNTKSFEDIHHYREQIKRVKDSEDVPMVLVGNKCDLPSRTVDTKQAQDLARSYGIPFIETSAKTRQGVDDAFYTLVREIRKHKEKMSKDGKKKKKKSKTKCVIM

SMILES	IC50 (KRAS_WT and SOS1)	IC50 (KRAS_G12D and cRAF)	IC50 (KRAS-G12D and SOS1)
CN1CCC[C@H]1COc1nc(N2CC3CCC(C2)N3)c2cc(Cl)c(-c3c(F)c(O)cc4ccccc34)c(F)c2n1 (single isomer, unassigned) [Compound 195b, (S or R)-4-(4-((1R,5S)-3,8-diazabicyclo[3.2.1]octan-3-yl)-6-chloro-8-fluoro-2-((S)-1-methylpyrrolidin-2-yl)methoxy)quinazolin-7-yl)-3-fluoronaphthalen-2-ol formate]	6490 nM	334 nM	57.7 nM
Oc1cc(Cl)c(C2CC2)c(-c2c(Cl)cc3c(N4C[C@H]5CC[C@@H](C4)N5)nc(OCCCN4C5CCC4COC5)nc3c2F)c1 (single isomer, unassigned) [Compound 197a, 3-((7R or 7S)-2-(3-(3-oxa-8-azabicyclo[3.2.1]octan-8-yl)propoxy)-4-((1R,5S)-3,8-diazabicyclo[3.2.1]octan-3-yl)-6-chloro-8-fluoroquinazolin-7-yl)-5-chloro-4-cyclopropylphenol formate]	833 nM	59.8 nM	17.8 nM
Oc1cc(Cl)c(C2CC2)c(-c2c(Cl)cc3c(N4CC5CCC(C4)N5)nc(OC[C@@]45CCCN4C[C@H](F)C5)nc3c2F)c1 (single isomer, unassigned) [Compound 198a, 3-((R or S)-4-((1R,5S)-3,8-diazabicyclo[3.2.1]octan-3-yl)-6-chloro-8-fluoro-2-((2R,7aS)-2-fluorotetrahydro-1H-pyrrolin-7a(5H)-yl)methoxy)quinazolin-7-yl)-5-chloro-4-cyclopropylphenol formate]	23.5 nM	6.11 nM	11.4 nM
Oc1cc(Cl)c(C2CC2)c(-c2c(Cl)cc3c(N4CC5CCC(C4)N5)nc(OC[C@@]45CCCN4C[C@H](F)C5)nc3c2F)c1 (single isomer, unassigned) [Compound 198b, 3-((S or R)-4-((1R,5S)-3,8-diazabicyclo[3.2.1]octan-3-yl)-6-choro-8-fluoro-2-((2R,7aS)-2-fluorotetrahydro-1H-pyrrolin-7a(5H)-yl)methoxy)quinazolin-7-yl)-5-chloro-4-cyclopropylphenol formate]	105 nM	38.5 nM	54.1 nM
Oc1cc(-c2c(Cl)cc3c(N4CC5CCC(C4)N5)nc(OCC45CCCN4CCC5)nc3c2F)c2ccccc2c1 (single isomer, unassigned) [Compound 199, 4-((R or S)-4-((1R,5S)-3,8-diazabicyclo[3.2.1]octan-3-yl)-6-chloro-8-fluoro-2-((tetrahydro-1H-pyrrolin-7a(5H)-yl)methoxy)quinazolin-7-yl)naphthalen-2-ol diformate]	58.4 nM	9 nM	13.2 nM
Oc1cc(-c2c(Cl)cc3c(N4CC5CCC(C4)N5)nc(OCCCN4C5COCC4C5)nc3c2F)c2ccccc2c1 (single isomer, unassigned) [Compound 200, 4-((7S or 7R)-2-(3-(3-oxa-6-azabicyclo[3.1.1]heptan-6-yl)propoxy)-4-((1R,5S)-3,8-diazabicyclo[3.2.1]octan-3-yl)-6-chloro-8-fluoroquinazolin-7-yl)naphthalen-2-ol diformate]	2490 nM	73.7 nM	62 nM
CCC(COc1nc(N2CC3CCC(C2)N3)c2cc(Cl)c(-c3cc(O)cc4ccccc34)c(F)c2n1)CN1C2CCC1COC2 (single isomer, unassigned) [Compound 201a, (4S or 4R)-4-(2-((2R or 2S)-2-(3-oxa-8-azabicyclo[3.2.1]octan-8-ylmethyl)butoxy)-4-((1R,5S)-3,8-diazabicyclo[3.2.1]octan-3-yl)-6-chloro-8-fluoroquinazolin-7-yl)naphthalen-2-ol formate]	1040 nM	23.2 nM	29 nM
CCC(COc1nc(N2CC3CCC(C2)N3)c2cc(Cl)c(-c3cc(O)cc4ccccc34)c(F)c2n1)CN1C2CCC1COC2 (single isomer, unassigned) [Compound 201b, (4S or 4R)-4-(2-((2S or 2R)-2-(3-oxa-8-azabicyclo[3.2.1]octan-8-ylmethyl)butoxy)-4-((1R,5S)-3,8-diazabicyclo[3.2.1]octan-3-yl)-6-chloro-8-fluoroquinazolin-7-yl)naphthalen-2-ol formate]	2180 nM	45.8 nM	54.6 nM
C[C@H](COc1nc(N2CC3CCC(C2)N3)c2cc(Cl)c(-c3cc(O)cc4ccccc34)c(F)c2n1)CN(C)C (single isomer, unassigned) [Compound 202, 4-((S or R)-4-((1R,5S)-3,8-diazabicyclo[3.2.1]octan-3-yl)-6-chloro-2-((S)-3-(dimethylamino)-2-methylpropoxy)-8-fluoroquinazolin-7-yl)naphthalen-2-ol diformate]	2150 nM	168 nM	51.8 nM
C[C@@H](COc1nc(N2CC3CCC(C2)N3)c2cc(Cl)c(-c3cc(O)cc4ccccc34)c(F)c2n1)CN(C)C (single isomer, unassigned) [Compound 203, 4-((S or R)-4-((1R,5S)-3,8-diazabicyclo[3.2.1]octan-3-yl)-6-chloro-2-((R)-3-(dimethylamino)-2-methylpropoxy)-8-fluoroquinazolin-7-yl)naphthalen-2-ol diformate]	893 nM	33.9 nM	19.8 nM
Oc1cc(-c2c(Cl)cc3c(N4CC5CCC(C4)N5)nc(OCC4(CN5C6CCC5COC6)COC4)nc3c2F)c2ccccc2c1 (single isomer, unassigned) [Compound 204, 4-((7S or 7R)-2-((3-(3-oxa-8-azabicyclo[3.2.1]octan-8-ylmethyl)oxa-3-yl)methoxy)-4-((1R,5S)-3,8-diazabicyclo[3.2.1]octan-3-yl)-6-chloro-8-fluoroquinazolin-7-yl)naphthalen-2-ol ditrifluoroacetate]	4250 nM	121 nM	77.4 nM
C[C@@H](COc1nc(N2CC3CCC(C2)N3)c2cc(Cl)c(-c3cc(O)cc4ccccc34)c(F)c2n1)CN1C[C@@H](C)O[C@@H](C)C1 (single isomer, unassigned) [Compound 205, 4-((S or R)-4-((1R,5S)-3,8-diazabicyclo[3.2.1]octan-3-yl)-6-chloro-2-((R)-3-((2S,6R)-2,6-dimethylmorpholinyl)-2-methylpropoxy)-8-fluoroquinazolin-7-yl)naphthalenol formate]	505 nM	13 nM	11.6 nM
C[C@H](COc1nc(N2CC3CCC(C2)N3)c2cc(Cl)c(-c3cc(O)cc4ccccc34)c(F)c2n1)CN1C[C@@H](C)O[C@@H](C)C1 (single isomer, unassigned) [Compound 206, 4-((S or R)-4-((1R,5S)-3,8-diazabicyclo[3.2.1]octan-3-yl)-6-chloro-2-((S)-3-((2S,6R)-2,6-dimethylmorpholinyl)-2-methylpropoxy)-8-fluoroquinazolin-7-yl)naphthalen-2-ol diformate]	6830 nM	134 nM	46.1 nM
C[C@@H]1CN(CC2(COc3nc(N4CC5CCC(C4)N5)c4cc(Cl)c(-c5cc(O)cc6ccccc56)c(F)c4n3)CC2)C[C@H](C)O1 (single isomer, unassigned) [Compound 207, 4-((S or R)-4-((1R,5S)-3,8-diazabicyclo[3.2.1]octan-3-yl)-6-chloro-2-((2S,6R)-2,6-dimethylmorpholinyl)methyl)cyclopropyl)methoxy)-8-fluoroquinazolin-7-yl)naphthalenol formate]	196 nM	7.23 nM	11.6 nM
Oc1cc(-c2c(Cl)cc3c(N4CC5CCC(C4)N5)nc(OCC(CN4C5CCC4COC5)C4CC4)nc3c2F)c2ccccc2c1 (single isomer, unassigned) [Compound 209a, 4-((7S or 7R))-2-(2(R or S))-3-(3-oxa-8-azabicyclo[3.2.1]octan-8-yl)-2-cyclopropylpropoxy)-4-((1R,5S)-3,8-diazabicyclo[3.2.1]octan-3-yl)-6-chloro-8-fluoroquinazolin-7-yl)naphthalen-2-ol diformate]	5650 nM	59.4 nM	36.1 nM
C[C@@H](COc1nc(N2C[C@H]3CC[C@@H](C2)N3)c2cc(Cl)c(-c3cc(O)cc4ccccc34)c(F)c2n1)CN1[C@@H]2CCC[C@H]1COC2 (single isomer, unassigned) [Compound 210, (S or R) 4-(2-((R)-3-((1R,5S)-3-oxa-9-azabicyclo[3.3.1]nonan-9-yl)-2-methylpropoxy)-4-((1R,5S)-3,8-diazabicyclo[3.2.1]octan-3-yl)-6-chloro-8-fluoroquinazolin-7-yl)naphthalen-2-ol diformate]	2070 nM	17.8 nM	17.8 nM
Oc1cc(-c2c(Cl)cc3c(N4CC5CCC(C4)N5)nc(OC[C@@]45CCCN4C[C@H](F)C5)nc3c2F)c2c(F)c(F)ccc2c1 (single isomer, unassigned) [Compound 214a, 4-((S or R)-4-((1R,5S)-3,8-diazabicyclo[3.2.1]octane-3-yl)-6-chloro-8-fluoro-2-((2R,7aS)-2-fluorotetrahydro-1H-pyrrolidin-7a (5H)-yl)methoxy)quinazolin-7-yl)-5,6-difluoronaphthalen-2-ol diformate]	8.01 nM	8.68 nM	13.2 nM
CCc1c(F)ccc2cc(O)cc(-c3c(F)cc4c(N5CC6CCC(C5)N6)nc(OCCCN5C6CCC5COC6)nc4c3F)c12 (single isomer, unassigned) [Compound 215a, 4-((7S or 7R)-2-(3-(3-oxa-8-azabicyclo[3.2.1]octan-8-yl)propoxy)-4-((1R,5S)-3,8-diazabicyclo[3.2.1]octan-3-yl)-6,8-difluoroquinazolin-7-yl)-5-ethyl-6-fluoronaphthalen-2-ol diformate]	52.4 nM	5.44 nM	11.9 nM
